Assay results taken from patent US12018041B2, “Metal tin cyclized perylene diimide derivative, method for preparing the same, and method for using the same” (Dalian University of Technology, priority 2019, dated 2024).

Columns and labels:
[1] = UV-Vis absorption spectrum in a solution state; format: physicochemical; conditions: compared with the corresponding perylene diimide without tin ring
[2] = Transient absorption spectrum and triplet decay; format: physicochemical; conditions: dynamic absorption fitting at 485 nm in the transient absorption spectrum
Procedure: (2) The transient absorption spectrum of 6-undecylamine derived tin cyclized perylene diimide (shown in FIG. 2) was tested, and a strong excited triplet absorption at 400 nm-515 nm was detected.
The decay time is 17 μs. 6-undecylamine derived tin cyclized perylene diimide has a relatively long triplet time life.

[3] = Singlet oxygen quantum yield by DPBF capture in DCM; format: physicochemical; conditions: absorbance change at 414 nm
Description: (4) The triplet energy of the photosensitizer can be transferred to triplet oxygen molecules (^3O2), to produce singlet oxygen molecules (^1O2). 1,3-diphenylisobenzofuran (DPBF) is used to capture singlet oxygen, and at the same time, DPBF itself is oxidized by ^1O2, resulting in a decrease in the absorption peak of DPBF at 414 nm in the UV-visible absorption spectrum. The singlet oxygen quantum yield of the photosensitizer molecule can be calculated by monitoring the absorbance change of DPBF at 414 nm. FIG. 4 is a graph showing decay of a UV-visible absorption of DPBF in DCM with time under the influence of 6-undecylamine derived tin cyclized perylene diimide as a photosensitizer. It is known from calculation that the singlet oxygen quantum yield of 6-undecylamine derived tin cyclized perylene diimide is 40%.

cervical cancer cells = assay: DCFH-DA reactive oxygen imaging in cervical cancer cells; format: cell-based; conditions: cervical cancer cells with DCFH-DA
Description: (5) The application of photosensitizers to photodynamic therapy requires the photosensitizers to have low cytotoxicity and capability of entering cells, and to achieve better singlet oxygen output in the cells. In cervical cancer cells, the fluorescent probe DCFH-DA, as a reactive oxygen detection reagent, is non-fluorescent and can freely penetrate the cell membrane to enter the cell. The reactive oxygen species (single oxygen) in the cells can oxidize the non-fluorescent DCFH to produce a fluorescent DCF, and the level of the reactive oxygen species can be known by detecting the fluorescence intensity of DCF. […] In the figure, fluorescence images of the cervical cancer cells, which are cultured in the presence of 6-undecylamine derived tin cyclized perylene diimide and DCFH-DA, subjected to no light, and 10 s, 20 s, 30 s of […] green light irradiation are respectively presented from left to right. It is known from the figure that the singlet oxygen generated from photosensitization of 6-undecylamine derived tin cyclized perylene diimide oxidizes DCFH to produce fluorescent DCF, which makes the fluorescence of cervical cancer cells appear by imaging, and the imaging effect becomes better along with the time.

Structure (SMILES) | Absorption spectrum [1] | Triplet decay time [2] [μs] | Singlet oxygen quantum yield [3] [%] | irradiation time after which fluorescence intensity of cervical cancer cells no longer changes (cervical cancer cells; 420 nm green light irradiation) [s] | singlet oxygen effect in cells (DCF fluorescence) (cervical cancer cells; no light and 10 s, 20 s, 30 s of 420 nm green light irradiation)
CCC[CH2][Sn]1([CH2]CCC)[c]2cc3c4c(ccc5c6ccc7c8c(c[c]1c(c2c45)c86)C(=O)N(c1ccncc1)C7=O)C(=O)N(c1ccncc1)C3=O [Example B20] | red shift | 25 | 42 |  | 
CCC[CH2][Sn]1([CH2]CCC)[c]2cc3c4c(ccc5c6ccc7c8c(c[c]1c(c2c45)c86)C(=O)N(CCCC(C)C)C7=O)C(=O)N(CCCCC(CC)CCC)C3=O (centres unmarked) [Example B10] | red shift | 12 | 26 |  | 
CCCCCC(CCCCC)N1C(=O)c2ccc3c4ccc5c6c(c[c]7c(c8[c](cc(c2c38)C1=O)[Sn]7([CH2]CCC)[CH2]CCC)c64)C(=O)N(C(CCCCC)CCCCC)C5=O [6-undecylamine derived tin cyclized perylene diimide] | obvious red shift | 17 | 40 | 20 | good singlet oxygen effect in cells
CCC[CH2][Sn]1([CH2]CCC)[c]2cc3c4c(ccc5c6ccc7c8c(c[c]1c(c2c45)c86)C(=O)N(C1CCNCC1)C7=O)C(=O)N(C1CCNCC1)C3=O [Example B22] | red shift | 21 | 44 |  | 
CCC[CH2][Sn]1([CH2]CCC)[c]2cc3c4c(ccc5c6ccc7c8c(c[c]1c(c2c45)c86)C(=O)N(c1cccc2ccccc12)C7=O)C(=O)N(c1cccc2ccccc12)C3=O [Example B17] | red shift | 11 | 36 |  | 
CCCCCC(CC(C)CCC)N1C(=O)c2ccc3c4ccc5c6c(c[c]7c(c8[c](cc(c2c38)C1=O)[Sn]7([CH2]CCC)[CH2]CCC)c64)C(=O)N(C(CCCCC)CC(C)CCC)C5=O (centres unmarked) [Example B4] | red shift | 17 | 47 |  | 
CCC[CH2][Sn]1([CH2]CCC)[c]2cc3c4c(ccc5c6ccc7c8c(c[c]1c(c2c45)c86)C(=O)N(CC(C)C)C7=O)C(=O)N(CC(C)C)C3=O [Example B6] | red shift | 18 | 29 |  | 
CCC[CH2][Sn]1([CH2]CCC)[c]2cc3c4c(ccc5c6ccc7c8c(c[c]1c(c2c45)c86)C(=O)N(c1ccc(C(C)(C)C)cc1)C7=O)C(=O)N(c1ccc(C(C)(C)C)cc1)C3=O [Example B14] | red shift | 14 | 33 |  | 
CCC[CH2][Sn]1([CH2]CCC)[c]2cc3c4c(ccc5c6ccc7c8c(c[c]1c(c2c45)c86)C(=O)N(c1cccc2[nH]ncc12)C7=O)C(=O)N(c1cccc2[nH]ncc12)C3=O [Example B16] | red shift | 19 | 46 |  | 
